This note sets out measurements from patent publication US20150352075A1, “Treatment of Alzheimer's and Cognitive Impairment With Andrographolides” (INNOBIOSCIENCE, LLC, priority 2013, published 2015).

For assay [1], the system named is APPswe/PS-1 double transgenic mice. The assay can be described thus: Slot blot of Aβ oligomers (A11 antibody) in hippocampus of treated mice. The format is in vivo.
Assay [2] deals with GSK-3β. The experiment in a line: Immunoblot of GSK-3β phosphorylation state and β-catenin in Wt hippocampal slices. In kind it is cell-based, mice. The procedure:
The hippocampus and cortex of treated or control transgenic mice were dissected on ice and immediately processed has detailed previously (Toledo & Inestrosa 2010). Briefly, hippocampal and cortical tissues were homogenized in RIPA buffer (10 mM Tris-Cl, pH 7.4, EDTA 5 mM, 1% NP-40, 1% sodium deoxycholate, and 1% SDS) supplemented with a protease inhibitor mixture and phosphatase inhibitors (25 mMNaF, 100 mM Na3VO4 and 30 μM Na4P2O7) using a Potter homogenizator and then passed sequentially through different caliber syringes. Protein samples were centrifuged at 14000 rpm at 4° C. twice for 15 min Protein concentrations were determined using the BCA Protein Assay Kit (Pierce). Samples were resolved by SDS-PAGE followed by immunoblotting on PVDF membranes. Western blot assays were carried out as previously described (Inestrosa et al 2013; Toledo & Inestrosa 2010).
Hippocampal slices were prepared according to standard procedures previously described (Cerpa et al 2010; VarelaNallar et al 2010). Briefly, transverse slices (350 μm) from the dorsal hippocampus were cut under cold artificial cerebrospinal fluid (ACSF, in mM: 124 NaCl, […], 10 D-glucose, 2.69 KCl, 1.25 KH2PO4 2.5 CaCl2, 1.3 MgSO4, y 2.60 NaHPO4) using a V ibratome (Leica VT 1000s, Germany) and incubated in ACSF for 1 h at room temperature. In all experiments, 10 μM picrotoxin (PTX) was added to suppress inhibitory GABAA transmission (Cuitino et al 2010). Slices were transferred to an experimental chamber (2 ml), superfused (3 ml/min, at 20-22° C.) with gassed ACSF and visualized by trans-illumination with a binocular microscope (MSZ-10, Nikon, Melville, N.Y.). […] The paired pulse facilitation index was calculated by ((R2−R1)/R1), where R1 and R2 were the peak amplitudes of the first and second fEPSP respectively. […] Evoked postsynaptic responses were analyzed off-line, using an analysis software (pClampfit, Molecular Devices), which allowed visual detection of events, computing only those events that exceeded and arbitrary threshold.
A general note: Immunoblotting shows a protein as a band on a membrane.

In assay [3] the test system is dentate gyrus of wild-type mice. The experiment in a line: Adult hippocampal neurogenesis (Ki67, DCX immunofluorescence). In kind it is in vivo. The procedure: Animals. Two-month-old C57BC6 wild-type mice were treated and handled according to National Institutes of Health guidelines (NIH, […], Md.). The treatments were performed by intraperitoneal (ip) injection of 2.0 mg/kg ANDRO and wild-type control animals were injected only with saline solution as vehicle.
Mice were anesthetized (100 μg ketamine+10 μg xylazine in […] saline/g), and then transcardially perfused with saline, followed by 4% paraformaldehyde (PFA) in 0.1M PBS. The brains were removed and incubated in PBS-4% PFA for 24 h at room temperature, dehydrated in 30% sucrose and kept at 4° C. until analysis.
After dehydration, each mouse brain was sectioned on a cryostate in 12 sets of serial coronal sections of […] thickness (Leica Microsystems, Wetzlar, Germany) and collected in ice-cold-PBS in multiwell dishes.Each set contained 5-7 sections covering the entire length of the hippocampus.
Sections were washed with PBS 3 times for 5 min and then incubated in blocking solution (3% donkey serum, 3% BSA, 0.5% Triton X-100 in PBS) for 4 h. Then, tissues were incubated overnight with primary antibodies at 4° C. Primary antibodies used were: rabbit anti-Ki67 (Abcam), rabbit anti-DCX (Cell Signaling Technology Inc., Beverly, Mass., USA), monoclonal anti-NeuN (Millipore, Billerica, Mass., USA). After washing 3 times with 0.5% Triton X-100 PBS, sections were incubated with Dy Light (Abcam) conjugated secondary antibodies for 2 h at room temperature. […] For quantification, Ki67 positive cells were countedusing a fluorescence microscope (Olympus BX51, Tokyo, Japan). Cells were counted in all sections of one set (see tissue sectioning). Total cells counted in one set were multiplied by the total number of sets to obtain an estimation of the total number of Ki67+ cells in the complete hippocampus. For quantification of the % area covered by DCX, double labeling DCX/NeuN was carried. […] Images shown were analyzed by confocal laser microscopy (Olympus FV 1000) and z-projections were generated with ImageJ software.

Assay [4] concerns APPswe/PS-1 double transgenic mice. The experiment in a line: Memory flexibility test (modified Morris Water Maze). The format is in vivo. Conditions: 7-month-old APPswe/PS-1 mice, 2.0 mg/kg IP three times per week, four weeks, vs Tg control.
The mark [5] stands for this setting: Wt hippocampal slices, 10 μM ANDRO for 1 hr (FIG. 5).
[6] abbreviates: 2-month-old mice, 2 mg/kg i.p. 3 times per week for 4 weeks.

Turning to `C=C1CC[C@@H]2C(C)(CO)C(O)CC[C@@]2(C)C1C/C=C1/C(=O)OCC1O` (stereo in doubt) [ANDRO, 3-(2-(Decahydro-6-hydroxy-5-(hydroxymethyl)-5,8a-dimethyl-2-methylenenaphthyl)ethylidene)dihydro-4-hydroxyfuran-2(3H)-one], the “level of Aβ oligomers (A11 slot-blot)” value in assay [1] (7 month-old APPswe/PS-1 mice) is listed as “did not show significant changes”. Further, in assay [1] (FIG. 3G mice (legend: old APPswe/PS-1)), the “levels of Aβ-oligomers (A11 slot blot)” value is “did not show significant changes”. Moreover, in assay [2] (Wt hippocampal slices incubated with ANDRO), the “levels of β-catenin” value is recorded as “increase in the levels of β-catenin”. In assay [2] (setting [5]), the “active form of GSK-3β (Tyr-216 phosphorylation)” value is “reduction of the active form (Tyr-216)” and the “inactive form of GSK-3β (Ser-9 phosphorylation)” value is “increase in the levels of the inactive form of GSK-3P (Ser-9)”. In assay [3] (setting [6]), the “percentage of the granular cell layer covered by DCX staining” value was “significantly increased” and the “total number of Ki67+ cells in the SGZ” value is reported as “significantly increased the total number of Ki67^+ cells”. The “morphology of DCX+ cells” value in assay [3] (compared to control mice) was “more complex morphology”. The “number of trial to criterion of learning” value in assay [4] is recorded as “reduction in the number of trial to criterion of learning”.
